Results: US9573938B2 (priority 2012, dated 2017)

Assays:
HIV-1 integrase [1] = biological target: T1, HIV-1 integrase (Human immunodeficiency virus type 1 group M subtype B, UniProt P12497); test: 3′-processing assay; type: biochemical; conditions: 500 nM integrase, blunt ended 32P-labled 21-mer U5 DNA, 37° C. 1 hour; read-out: IC50 (μM) 3′-Process
Procedure: (§1) The two metal binding motif of these compounds allows for potential cross reactivity with other drug targets with two metal containing active sites. Compounds were tested for LEDGF independent integration (strand transfer) and 3′ processing based on established protocols (Kessl et al.; J Biol Chem, 2012; 287:16801-16811).
(§2) The 3′-processing was assayed using blunt ended ^32P-labled 21-mer synthetic double stranded U5 DNA. The strand transfer assay used ^32P-labled recessed end 19-mer synthetic double stranded U5 DNA. 500 nM integrase was pre-incubated with compound for 30 minutes on ice in 50 mM MOPS (pH 7.2) buffer containing 2 mM β-mercaptoethanol, 50 mM NaCl and 10 mM MgCl2. 50 nM DNA substrate was added to the reaction and incubated at 37° C. for 1 hour when the reactions were stopped with 50 mM EDTA. The reaction products are subjected to denaturing polyacrylamide gel electrophoresis and visualized using a Storm 860 Phosphorimager (Amersham Biosciencs). The ICs50s of representative compounds of formula (I) as detected with a LEDGF independent integration assay or a 3′-processing assay are shown in the following table.

HIV-1 integrase [2] = biological target: T1, HIV-1 integrase; test: LEDGF independent integration (strand transfer) assay; type: biochemical; conditions: 500 nM integrase, 32P-labled recessed end 19-mer U5 DNA, 37° C. 1 hour
Procedure: as §1, §2

Structure (SMILES) | IC50 (HIV-1 integrase [1]) | IC50 (HIV-1 integrase [2])
O=C(O)c1cccc(-c2c[nH]c(=O)c(O)c2)c1 [drawing 240] | 22.2 ± 2.5 µM | 20.5 ± 1.3 µM
O=C(O)c1ccc(-c2c[nH]c(=O)c(O)c2)cc1 [drawing 242] | 7.4 ± 1.6 µM | 50.7 ± 2.9 µM
O=c1[nH]c(-c2ccc(O)c(O)c2)ccc1O [drawing 237] | 8.2 ± 2.5 µM | 6 ± 0.8 µM
O=c1[nH]c(-c2ccc(-c3nnn[nH]3)cc2)c(-c2ccc(F)cc2)cc1O [drawing 238] | 20.8 ± 5.8 µM | 11.7 ± 1.5 µM
O=c1[nH]c(-c2ccc(-c3nnn[nH]3)cc2)ccc1O [drawing 241] | 12.6 ± 3.2 µM | 23.7 ± 2.7 µM
O=c1[nH]cc(-c2ccc(F)cc2)cc1O [drawing 239] | 11.6 ± 1.6 µM | 15.7 ± 0.9 µM
